Our source for the IC50 values is paper PMC9191229, “Molecular and Biochemical Analysis of Duplicated Cytosolic CuZn Superoxide Dismutases of Rice and in silico Analysis in Plants” (Frontiers in Plant Science, 2022).

The subject of one experiment is T1, OsCSD4.
T1 construct: gene SODCC2
The experiment can be described thus: SOD activity, NBT reduction assay (NADH/PMS), A560. In kind it is biochemical, Oryza sativa. The note with it: 1 h pre-incubation with DDC (0-2.0 mM); 1 U enzyme; Tris-HCl 50 mM pH 8.0, EDTA 0.1 mM.

For the next experiment, the system named is T2, OsCSD1.
T2 construct: gene SODCC1
The experiment can be described thus: SOD activity, NBT reduction assay (NADH/PMS), A560. In kind it is biochemical, Oryza sativa. The note with it: 1 h pre-incubation with DDC (0-2.0 mM); 1 U enzyme; Tris-HCl 50 mM pH 8.0, EDTA 0.1 mM.

A word on the IC50: it is the concentration at which inhibition is half-maximal. A low value points to higher potency. For `CCN(CC)C(=S)S` [diethyldithiocarbamate], the values for the IC50 in the experiment on OsCSD4 and in the experiment on OsCSD1 were 500 µM and 520 µM, respectively.
